Each structure is given as a SMILES string.

The target in data set [1] is intracellular Leishmania donovani strain MHOM/ET/67/L82 β-lactamase expressing parasites. To be noted: cited from earlier work; for EC50: read-out: L. donovani EC50, ref Van Horn et al.[18].
The test system of data set [2] is L. donovani. Particulars: 15 mg/kg/day for five days, ip; cited from earlier work.
A short description of data set [3]: Pharmacokinetic analysis after ip administration in mice. It is filed as in vivo. To be noted: for Kp / concentration at 4 h / concentration at 12 h: Swiss Webster, mouse, ip, 10 mg/kg; for Kp: liver and spleen (versus plasma).
In data set [4] the test system is BALB/c mice. Put plainly: Toxicity to BALB/c mice. It is filed as in vivo.

As a reminder, the EC50 is the concentration that produces a half-maximal response. Take `c1ccc(CNc2nc(NCc3ccccc3)c3ccccc3n2)cc1` [Compound 1, N^2,N^4-dibenzylquinazoline-2,4-diamine]: the EC50 in data set [1] is 670 ± 270 nM.
For the compound `CNc1nc(NCc2ccccc2)nc2ccccc12` [Compound 2, N^2-benzyl-N^4-methylquinazoline-2,4-diamine], in data set [1], the 50% effective concentration (EC50) was 150 ± 20 nM.
As for `CC(C)Nc1nc(NCc2ccco2)c2ccccc2n1` [Compound 3], in data set [1], the 50% effective concentration (EC50) was 2500 ± 400 nM.
Regarding `Cc1ccc2c(NCc3ccco3)nc(NC(C)C)nc2c1` [Compound 4, N^4-(furan-2-ylmethyl)-N^2-isopropyl-7-methylquinazoline-2,4-diamine], the “activity in L. donovani-infected mice” value in data set [2] is given as “promising activity”. The “L. donovani EC50” value in data set [1] (ref Van Horn et al.[18]) was “submicromolar”.
By Kp is commonly meant the ratio of the level in a tissue or fluid to that in plasma or blood. Regarding `Clc1ccc(CNc2nc(NCc3ccccc3)c3ccccc3n2)cc1` [Compound 15, N^4-benzyl-N^2-(4-chlorobenzyl)quinazoline-2,4-diamine], the “plasma AUC relative to 40 after adjusting for dose” value in data set [3] (10 mg/kg ip, mice) was determined as 2.8 fold. The compound also came in with a Kp in data set [3] of 20 to 21. Also, the concentration at 4 h was found to be 25.3 µM in data set [3] (liver) and 26.6 µM in data set [3] (spleen). Moreover, the concentration at 12 h in data set [3] (liver) was 25.3 µM; in data set [3] (spleen) it was 26.6 µM. The “toxicity to BALB/c mice” value in data set [4] (10 mg/kg/day × 5, ip) is listed as “no apparent adverse effects”; in data set [4] (30 mg/kg/day × 5, ip), “toxic”.
On to `CC(C)Nc1nc(NCc2ccccc2)nc2ccccc12` [Compound 40, N^2-benzyl-N^4-isopropylquinazoline-2,4-diamine], for which, in data set [3], the Kp was 3.2 to 16. Further, the figures for the concentration at 4 h in data set [3] (liver) and in data set [3] (spleen) were 20.2 µM and 16.5 µM, respectively. The concentration at 12 h in data set [3] (liver) was 20.2 µM; in data set [3] (spleen), 16.5 µM. Also, the “toxicity to BALB/c mice” value in data set [4] (10 mg/kg/day × 5, ip) was “no apparent adverse effects”; in data set [4] (30 mg/kg/day × 5, ip), “toxic”.

The values above are taken from article PMC4536136 (Bioorganic & medicinal chemistry, 2015).
